Values quoted from earlier work in US20090004049A1, “Method of irradiation using process of adding vitamin C” (priority 2007, published 2009).

Tested on: patients with cancer
Settings: 10 g of vitamin C administered to patients with cancer

For `O=C1O[C@H]([C@@H](O)CO)C(O)=C1O` [vitamin C], the “increase of survival rate of patients compared with control” value is given as 4 times.
